In patent US11578009B2, “Urea-based blend composition and method for the manufacture thereof” (YARA INTERNATIONAL ASA, priority 2018, dated 2023):

What was measured:
[1] = nBTPT stability on YaraVera Amidas (UAS) during storage, HPLC analysis of nBTPT content; type: physicochemical; conditions: for Stabilizing effect on nBTPT on UAS: Experiment 4, MgSO4/MgO combinations, FIG. 4
Protocol: For lab scale experiments, 1.2 kg of solid fertilizer material was added to a lab scale drum. […] A residence time of 10 minutes was applied and the rotating speed of the drum was consequently the same in each experiment. […] Before use, the moisture-repellent coating was preheated to 80° C. Larger scale experiments with amounts up to 40 kg of fertilizer material were performed in a concrete mixer. The samples were stored under several conditions, dependent on the type of samples: • Bagged at room temperature (18-25° C.) • Bagged at 40° C. • Open to air at room temperature (18-25° C.) 3.

[2] = pH of MgSO4 grades; type: physicochemical; conditions: MgSO4 grade

SMILES | pH [2] | Stabilizing effect on nBTPT on UAS ([1]; 462 ppm nBTPT) | other results
O=S(=O)([O-])[O-].[Na+].[Na+] [Na2SO4, reference compound] |  |  | Stability of nBTPT on YaraVera Amidas product ([1]; Experiment 3, open plastic containers at room temperature for 21 days, 462 ppm nBTPT, FIG. 3): negative effect
O=S(=O)([O-])[O-].[Mg+2] [MgSO4 99.5%] | 8.5 |  | 
O=S(=O)([O-])[O-].[Mg+2] [MgSO4 99.999%] | 6.1 |  | 
[O]=[Mg] [MgO, magnesium oxide, reference compound] |  | more effective than CaO | 
O=S(=O)([O-])[O-].[Mg+2] [MgSO4, magnesium sulphate] |  | little effect | Stabilizing effect on nBTPT in the presence of UAS ([1]; Experiment 2, open to air at room temperature 40 days (FIG. 2A) and in bags at 40° C. 8 days (FIG. 2B), 462 ppm nBTPT): comparable with the effect of the prior art compound (CaO); Stabilizing effect at more than 1 weight % of magnesium sulphate ([1]; more than 1 weight % in the composition): did not produce a proportionally better stabilizing effect
